Reference: US10792275B2 (priority 2016, dated 2020)

Columns and labels:
influenza virus [1] = test: microbe, parasite or virus in culture; type: cell-based; details: for Selectivity Index: CC50 divided by IC50; for IC50: unidentified influenza virus
water-solubility = type: physicochemical
in vitro = details: dog
H1N1 virus = test: in vivo antiviral effect in mice infected with H1N1; details: for survival rate: nasal administration
influenza H1N1 virus = type: cell-based, influenza virus A
[2] = test system: influenza viruses H1N1; H3N2; H5N1; H7N7; H7N9; H9N2; type: cell-based, influenza virus A; details: 20, 5, 1.25, 0.31 μM; 24 h after inoculation; MOI 0.002; RT-qPCR
H5N1 influenza virus = type: in vivo, BALB/c mice; details: 1×LD50 dose of H5N1; nasal administration, 5 doses; PB2-39 2.5 mg/kg, zanamivir 20 μl of 2.5 mg/ml
H7N9 virus = type: in vivo, BALB/c mice; details: 1×LD80 dose of H7N9; nasal administration, 5 doses; PB2-39 2.5 mg/kg, zanamivir 20 μl of 2.5 mg/ml
influenza virus [3] = test: lung viral load and histopathology in infected mice (PB2-39 study); details: fourth day following inoculation
[4] = 1×LD60 dose of H1N1, PB2-19 1 mg/kg
[5] = 1×LD60 dose of H1N1, PB2-19 1 mg/kg body weight
[6] = 5×LD50 dose of H1N1, 5 doses from 6 h after inoculation, PB2-39 2.5 mg/kg, zanamivir 20 μl of 2.5 mg/ml

Compound	Selectivity Index (influenza virus [1])	IC50 (influenza virus [1])	water-solubility (water-solubility)	CC50 (in vitro)	histopathological findings (H1N1 virus; [4])	viral proliferation in the lungs (H1N1 virus; [4])	survival rate (H1N1 virus; [5])	reduction of the viral titer of supernatant (influenza H1N1 virus)	inhibition of replication of tested influenza strains [2]	survival rate (H5N1 influenza virus)	survival rate (H7N9 virus)	survival rate (H1N1 virus; [6])	amounts of viruses in lung tissues (influenza virus [3]; plaque assay, PB2-39 2.5 mg/kg nasal)	histopathological examination: interstitial inflammatory cell infiltration and alveolar injury (influenza virus [3]; lung tissues)
Cc1cc(C(=O)Nc2ccc(I)cc2C(=O)O)ccc1[N+](=O)[O-] [PB2-19, 5-iodo-2-[(3-methyl-4-nitrobenzoyl)amino]benzoic acid]	273	0.55 ± 0.05 µM	limited	150 ± 10 µM	corroborated the ability of PB2-19 to provide in vivo anti-influenza effects	effectively reduce	100%	–	–	–	–	–	–	–
Cc1ccc(C(c2c(O)c3ccccc3oc2=O)c2c(O)c3ccccc3oc2=O)cc1 [PB2-35, 3,3′-[(4-methylphenyl)methylene]bis(4-hydroxy-2H-chromen-2-one)]	40	1.24 ± 0.21 µM	–	50 ± 5 µM	–	–	–	–	–	–	–	–	–	–
O=c1oc2ccccc2c(O)c1C1c2c(c3ccccc3oc2=O)Oc2c1c(=O)oc1ccccc21 [PB2-39, 7-(4-hydroxy-2-oxo-2H-chromen-3-yl)-6H,7H,8Hchromeno[3,4′:5,6]pyrano[3,2-c]chromene-6,8-dione]	–	1.22 ± 0.23 µM	–	> 1000 µM	–	–	–	100-1000 times	inhibited the replication of all the tested influenza strains in a dose-dependent manner	100%	100%	100%	significantly reduced	improvement
CC(=O)N[C@H]1[C@H]([C@H](O)[C@H](O)CO)OC(C(=O)O)=C[C@@H]1N=C(N)N [zanamivir, reference compound]	–	–	–	–	–	–	100%	–	–	100%	100%	100%	–	–
